From US20090137492A1 (priority 2006, published 2009)
Where “and” joins values, the source holds several entries; their conditions need not be identical. Identical values can stand only once. Entries after “also recorded” stand apart in the source; their conditions may differ.

Columns and labels:
[1] = tested on: B. anthracis Sterne spores; design: species or system Mice of the A/J strain; conditions: mouse, in vivo
[2] = tested on: IL-10; assay type: cell-based
[3] = mouse, in vivo
[4] = tested on: anthrax spores; design: species or system murine (A/J mice); conditions: mouse, in vivo
[5] = tested on: IL-1beta; assay type: cell-based
[6] = tested on: IL-1beta, IL-6, IL-10, TNF-alpha, Toll-Like Receptors (TLRs), NODs, SOCS; assay type: cell-based
[7] = tested on: IL-6; design: species or system cotton rat; conditions: rat, in vivo
[8] = tested on: H3N2/Wuhan influenza virus; design: species or system cotton rat; conditions: rat, in vivo

Question: With “Sar^9, Met(O2)^11-Substance P [Viprovex]” as the substance, how does the inhibition of lethality [1] read?
Answer: The inhibition of lethality was “dose dependent inhibition of lethality”.

Question: And the “treated animals that died” value [1]?
Answer: Its value is 2 of the 6.

Question: And the “IL-10 mRNA increase relative to IL-6 increase” value [2]?
Answer: The value was 21 ×.

Question: And the toxicity [3]?
Answer: Its toxicity is “no toxicity was observed”.

Question: What about the “increase in survival rates” value [4] of the same substance?
Answer: The value was 240%.

Question: What about the “protection against anthrax-induced death” value [4] of the same substance?
Answer: The value was “partially protect against anthrax-induced death”.

Question: What about the “protection from death, time course” value [4] of the same substance?
Answer: The value was “clearly protected from death as early as 5 days post-exposure; also recorded: maintained survival from approximately day 10 onward”.

Question: What about the survival rate [4] of the same substance?
Answer: Its survival rate is 68.8% and 62.5%.

Question: And the “survival, of the animals that would otherwise have died” value [4]?
Answer: The value was 20-70%.

Question: What about the “IL-1 mRNA increase relative to IL-6 increase” value [5] of the same substance?
Answer: The value was 28 ×.

Question: What about the “elevation of components of the host immune system” value [6] of the same substance?
Answer: Its value is “elevation of cytokines, interleukins, TLR, defensins and other components of immune surveillance; also recorded: elevate multiple components of the host immune system”.

Question: What about the “IL-6 levels in the lungs” value [7] of the same substance?
Answer: Its value is “do not significantly increase”.

Question: And the “Il-6, single animals” value [7]?
Answer: Its value is 1.623 and 1.253 and 2.458 and 2.167 and 3.013 and 0 and 2.416 and 7.483 and 1.791.

Question: And the “efficacy against influenza virus infection” value [8]?
Answer: The value was “provides therapeutic efficacy in animal models of infection by influenza virus; also recorded: more resistant to the effects of H3N2/Wuhan influenza virus”.
